Data taken from PubChem BioAssay AID248 (DTP/NCI, 2004).
“And” between values parts separate entries of the source, which are not always exact repeats. Equal entries are not always repeated. Inconclusive results and toxic doses are left out.

Tested on: L1210 leukemia ip in BDF1 mice, survival T/C
Assay: NCI In Vivo Anticancer Drug Screen. Data for tumor model L1210 Leukemia (intraperitoneal) in B6D2F1 (BDF1) mice
Details: endpoint: mean survival time, higher = longer survival
Outline: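 Transplantable tumor model; survival measured in treated vs vehicle control mice. Value = treated/control.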

[1] = dose: 100.0 mg/kg/injection, schedule: Q04DX003 (ip), vehicle: saline with Tween-80
[2] = dose: 200.0 mg/kg/injection, schedule: Q04DX003 (ip), vehicle: saline with Tween-80
[3] = dose: 100.0 mg/kg/injection, schedule: Q01DX009 (ip), vehicle: saline
[4] = dose: 100.0 mg/kg/injection, schedule: Q04DX003 (ip), vehicle: saline
[5] = dose: 200.0 mg/kg/injection, schedule: Q01DX009 (ip), vehicle: saline
[6] = dose: 200.0 mg/kg/injection, schedule: Q04DX003 (ip), vehicle: saline
[7] = dose: 400.0 mg/kg/injection, schedule: Q04DX003 (ip), vehicle: saline
[8] = dose: 100.0 mg/kg/injection, schedule: Q04DX002 (ip), vehicle: saline with Tween-80
[9] = dose: 200.0 mg/kg/injection, schedule: Q04DX002 (ip), vehicle: saline with Tween-80
[10] = dose: 400.0 mg/kg/injection, schedule: Q04DX002 (ip), vehicle: saline with Tween-80

## c1ccc(Oc2ccccc2)cc1
[1]
  T/C: 105 % of control
[2]
  T/C: 101 % of control
dose: 400.0 mg/kg/injection, schedule: Q04DX003 (ip), vehicle: saline with Tween-80
  T/C: 97 % of control

## C=CS(=O)(=O)c1ccc2ccccc2c1
dose: 10.0 mg/kg/injection, schedule: Q04DX002 (ip), vehicle: Klucel (hydroxypropylcellulose) (HPC)
  T/C: 118 % of control
dose: 20.0 mg/kg/injection, schedule: Q04DX002 (ip), vehicle: Klucel (hydroxypropylcellulose) (HPC)
  T/C: 96 % of control
dose: 40.0 mg/kg/injection, schedule: Q04DX002 (ip), vehicle: Klucel (hydroxypropylcellulose) (HPC)
  T/C: 100 % of control

## N#CCCNc1ccc(NC(=O)C(F)(F)F)cc1
dose: 25.0 mg/kg/injection, schedule: Q01DX009 (ip), vehicle: saline
  T/C: 92 % of control
dose: 50.0 mg/kg/injection, schedule: Q01DX009 (ip), vehicle: saline
  T/C: 92 % of control
[3]
  T/C: 94 % of control
[4]
  T/C: 87 % of control

## C[C@H]1C[C@H]2[C@@H]3CC[C@](O)(C(=O)CF)[C@@]3(C)C[C@H](O)[C@]2(F)[C@@]2(C)C=CC(=O)C=C12
dose: 50.0 mg/kg/injection, schedule: Q01DX001 (ip), vehicle: carboxymethylcellulose (CMC)
  T/C: 105 % of control
dose: 100.0 mg/kg/injection, schedule: Q01DX001 (ip), vehicle: carboxymethylcellulose (CMC)
  T/C: 113 % of control
dose: 200.0 mg/kg/injection, schedule: Q01DX001 (ip), vehicle: carboxymethylcellulose (CMC)
  T/C: 113 % of control
dose: 400.0 mg/kg/injection, schedule: Q01DX001 (ip), vehicle: carboxymethylcellulose (CMC)
  T/C: 113 % of control

## CCOC(=O)Cn1c(C(F)(F)F)nc2nc(Cl)c(Cl)nc21
dose: 50.0 mg/kg/injection, schedule: Q01DX009 (ip), vehicle: saline with Tween-80
  T/C: 97 % of control
dose: 100.0 mg/kg/injection, schedule: Q01DX009 (ip), vehicle: saline with Tween-80
  T/C: 108 % of control
dose: 200.0 mg/kg/injection, schedule: Q01DX009 (ip), vehicle: saline with Tween-80
  T/C: 97 % of control

## NC(N)=Nc1nc2ccc([N+](=O)[O-])cc2[nH]1
[3]
  T/C: 93 % of control
[4]
  T/C: 90 % of control
[5]
  T/C: 91 % of control
[6]
  T/C: 94 % of control
dose: 400.0 mg/kg/injection, schedule: Q01DX009 (ip), vehicle: saline
  T/C: 96 % of control
[7]
  T/C: 94 % of control

## COc1cc(OC)cc(-n2cccc2)c1
[8]
  T/C: 90 % of control
[9]
  T/C: 97 % of control
[10]
  T/C: 87 % of control

## O=N[O-].O=N[O-].[Co].[NH-]CCN(CC[NH-])CC[NH-]
dose: 50.0 mg/kg/injection, schedule: Q01DX001 (ip), vehicle: saline
  T/C: 108 % of control

## CC(C)/C(=N\[N+](C)(C)C)c1ccccc1
dose: 18.8 mg/kg/injection, schedule: Q04DX003 (ip), vehicle: saline
  T/C: 97 % of control
dose: 37.5 mg/kg/injection, schedule: Q04DX003 (ip), vehicle: saline
  T/C: 100 % of control
dose: 75.0 mg/kg/injection, schedule: Q01DX001 (ip), vehicle: saline
  T/C: 103 % of control
dose: 75.0 mg/kg/injection, schedule: Q04DX003 (ip), vehicle: saline
  T/C: 100 % of control

## O=C1C(N2CC2)=C(N2CCCC(O)C2)C(=O)C(N2CC2)=C1N1CCCC(O)C1 (stereo not drawn)
dose: 0.12 mg/kg/injection, schedule: Q04DX003 (ip), vehicle: saline
  T/C: 103 % of control
dose: 0.25 mg/kg/injection, schedule: Q04DX003 (ip), vehicle: saline
  T/C: 111 % of control
dose: 0.37 mg/kg/injection, schedule: Q01DX001 (ip), vehicle: saline
  T/C: 98 % of control
dose: 0.37 mg/kg/injection, schedule: Q01DX009 (ip), vehicle: saline
  T/C: 102 % of control and 103 % of control
dose: 0.5 mg/kg/injection, schedule: Q04DX003 (ip), vehicle: saline
  T/C: 123 % of control
dose: 0.75 mg/kg/injection, schedule: Q01DX001 (ip), vehicle: saline
  T/C: 108 % of control
dose: 0.75 mg/kg/injection, schedule: Q01DX009 (ip), vehicle: saline
  T/C: 96 % of control
dose: 1.5 mg/kg/injection, schedule: Q01DX001 (ip), vehicle: saline
  T/C: 105 % of control
dose: 1.5 mg/kg/injection, schedule: Q01DX009 (ip), vehicle: saline
  T/C: 124 % of control
dose: 2.0 mg/kg/injection, schedule: Q04DX003 (ip), vehicle: saline
  T/C: 168 % of control
dose: 3.0 mg/kg/injection, schedule: Q01DX001 (ip), vehicle: saline
  T/C: 102 % of control
dose: 3.0 mg/kg/injection, schedule: Q01DX009 (ip), vehicle: saline
  T/C: 159 % of control
dose: 4.0 mg/kg/injection, schedule: Q04DX003 (ip), vehicle: saline
  T/C: 156 % of control and 184 % of control
dose: 6.0 mg/kg/injection, schedule: Q04DX003 (ip), vehicle: saline
  T/C: 204 % of control

## O=C(CC(O)(C(F)(F)F)C(F)(F)F)c1cccc(S(=O)(=O)F)c1
[1]
  T/C: 95 % of control
[2]
  T/C: 100 % of control

## CCC[CH2][Sn]([CH2]CCC)([CH2]CCC)[CH2]C(C)(C)c1ccccc1
dose: 75.0 mg/kg/injection, schedule: Q01DX001 (ip), vehicle: other
  T/C: 91 % of control

## Nc1ccccc1S(N)(=O)=O
dose: 25.0 mg/kg/injection, schedule: Q04DX002 (ip), vehicle: Klucel (hydroxypropylcellulose) (HPC)
  T/C: 97 % of control
dose: 50.0 mg/kg/injection, schedule: Q04DX002 (ip), vehicle: Klucel (hydroxypropylcellulose) (HPC)
  T/C: 97 % of control
dose: 100.0 mg/kg/injection, schedule: Q04DX002 (ip), vehicle: Klucel (hydroxypropylcellulose) (HPC)
  T/C: 101 % of control and 120 % of control
dose: 200.0 mg/kg/injection, schedule: Q04DX002 (ip), vehicle: Klucel (hydroxypropylcellulose) (HPC)
  T/C: 97 % of control and 100 % of control
dose: 400.0 mg/kg/injection, schedule: Q04DX002 (ip), vehicle: Klucel (hydroxypropylcellulose) (HPC)
  T/C: 113 % of control

## CCOP(=O)(OCC)c1cccc(N)c1
[4]
  T/C: 100 % of control
[6]
  T/C: 87 % of control
[7]
  T/C: 100 % of control

## COC1CC=CC2=C1CCC1C2CC2C(=O)C1(C)CCC2O (stereo not drawn)
[4]
  T/C: 94 % of control
[6]
  T/C: 100 % of control
[7]
  T/C: 97 % of control

## CC(C)Nc1ccc(Nc2ccc(NC(C)C)cc2)cc1
dose: 1.56 mg/kg/injection, schedule: Q04DX003 (ip), vehicle: alcohol
  T/C: 102 % of control
dose: 3.12 mg/kg/injection, schedule: Q01DX009 (ip), vehicle: alcohol
  T/C: 98 % of control
dose: 3.12 mg/kg/injection, schedule: Q04DX003 (ip), vehicle: alcohol
  T/C: 109 % of control
dose: 6.25 mg/kg/injection, schedule: Q01DX009 (ip), vehicle: alcohol
  T/C: 94 % of control
dose: 6.25 mg/kg/injection, schedule: Q04DX003 (ip), vehicle: alcohol
  T/C: 105 % of control
dose: 12.5 mg/kg/injection, schedule: Q01DX009 (ip), vehicle: alcohol
  T/C: 96 % of control
dose: 12.5 mg/kg/injection, schedule: Q04DX003 (ip), vehicle: alcohol
  T/C: 95 % of control
dose: 18.0 mg/kg/injection, schedule: Q01DX009 (ip), vehicle: alcohol
  T/C: 104 % of control

## CC(F)(F)C(F)(F)C(=O)CC(=O)C(F)(F)F.CC(F)(F)C(F)(F)C(=O)CC(=O)C(F)(F)F.[Cu]
dose: 6.25 mg/kg/injection, schedule: Q01DX009 (ip), vehicle: saline with Tween-80
  T/C: 88 % of control
dose: 6.25 mg/kg/injection, schedule: Q04DX003 (ip), vehicle: saline with Tween-80
  T/C: 91 % of control
dose: 12.5 mg/kg/injection, schedule: Q01DX009 (ip), vehicle: saline with Tween-80
  T/C: 101 % of control
dose: 12.5 mg/kg/injection, schedule: Q04DX003 (ip), vehicle: saline with Tween-80
  T/C: 95 % of control
dose: 25.0 mg/kg/injection, schedule: Q01DX009 (ip), vehicle: saline with Tween-80
  T/C: 90 % of control
dose: 25.0 mg/kg/injection, schedule: Q04DX003 (ip), vehicle: saline with Tween-80
  T/C: 95 % of control

## O=S(=O)(Nc1cc(N2CCOCC2)c(O)c2ccccc12)c1ccccc1
dose: 25.0 mg/kg/injection, schedule: Q01DX001 (ip), vehicle: saline with Tween-80
  T/C: 95 % of control
dose: 50.0 mg/kg/injection, schedule: Q01DX001 (ip), vehicle: saline with Tween-80
  T/C: 97 % of control
dose: 100.0 mg/kg/injection, schedule: Q01DX001 (ip), vehicle: saline with Tween-80
  T/C: 94 % of control

## CCCN(CCC)CC(C)=O
[3]
  T/C: 98 % of control
[4]
  T/C: 107 % of control
[5]
  T/C: 101 % of control
[6]
  T/C: 109 % of control

## COc1ccccc1C(=O)OCC(=O)c1ccc(-c2ccccc2)cc1
dose: 200.0 mg/kg/injection, schedule: Q01DX001 (ip), vehicle: saline
  T/C: 91 % of control
dose: 400.0 mg/kg/injection, schedule: Q01DX001 (ip), vehicle: saline
  T/C: 94 % of control

## Cc1ccccc1-n1nnnc1N
[4]
  T/C: 102 % of control
[6]
  T/C: 96 % of control
[7]
  T/C: 98 % of control

## CCCCCCCCCCCCCCCC(=O)Nc1ccc(Cl)cc1
[8]
  T/C: 94 % of control
[9]
  T/C: 94 % of control
[10]
  T/C: 97 % of control
